Our source for the EC50 values is patent publication US10064873B2, “Compounds and compositions for treating HIV with derivatives of Betulin” (GlaxoSmithKline LLC, priority 2011, dated 2018).

Molecules are shown by their SMILES.

For orientation: EC50 means the concentration at which the effect is half-maximal.

The first test has as its system HIV NL4-3 wt. Description: MT4 antiviral assay, NL4-3 strain wild type. The following applies: Human immunodeficiency virus 1, NL43, MT4, read-out: EC50 NL4-3 wt (nM). It counts as cell-based, HIV-1.
As to `CC(C)C1=C2[C@H]3CC[C@@H]4[C@@]5(C)CC[C@H](OC(=O)CC(C)(C)C(=O)O)C(C)(C)[C@@H]5CC[C@@]4(C)[C@]3(C)CC[C@@]2([C@H](CN(CCN(C)C)Cc2ccc(Cl)cc2)OC(=O)CC(C)(C)C(=O)O)CC1=O` [Example 2, 4-((R)-1-((3aR,5aR,5bR,7aR,9S,11aR,11bR,13aS)-9-((3-Carboxy-3-methylbutanoyl)oxy)-1-isopropyl-5a,5b,8,8,11a-pentamethyl-2-oxo-3,3a,4,5,5a,5b,6,7,7a,8,9,10,11,11a,11b,12,13,13a-octadecahydro-2H-cyclopenta[a]chrysen-3a-yl)-2-((4-chlorobenzyl)(2-(dimethylamino)ethyl)amino)ethoxy)-2,2-dimethyl-4-oxobutanoic acid], the half-maximal effective concentration (EC50) came out at 5.2 nM.
As to `CC(C)C1=C2[C@H]3CC[C@@H]4[C@@]5(C)CC[C@H](OC(=O)CC(C)(C)C(=O)O)C(C)(C)[C@@H]5CC[C@@]4(C)[C@]3(C)CC[C@@]2([C@@H](CN(CCN(C)C)Cc2ccc(Cl)cc2)OC(=O)CC(C)(C)C(=O)O)CC1=O` [Example 4, 4-((S)-1-((3aR,5aR,5bR,7aR,9S,11aR,11bR,13aS)-9-((3-Carboxy-3-methylbutanoyl)oxy)-1-isopropyl-5a,5b,8,8,11a-pentamethyl-2-oxo-3,3a,4,5,5a,5b,6,7,7a,8,9,10,11,11a,11b,12,13,13a-octadecahydro-2H-cyclopenta[a]chrysen-3a-yl)-2-((4-chlorobenzyl)(2-(dimethylamino)ethyl)amino)ethoxy)-2,2-dimethyl-4-oxobutanoic acid], the EC50 came to 10.1 nM.
Take `CC(C)C1=C2[C@H]3CC[C@@H]4[C@@]5(C)CC[C@H](OC(=O)CC(C)(C)C(=O)O)C(C)(C)[C@@H]5CC[C@@]4(C)[C@]3(C)CC[C@@]2(CCNCc2ccccc2)CC1=O` [Example 6, 4-(((3aR,5aR,5bR,7aR,9S,11aR,11bR,13aS)-3a-(2-(Benzylamino)ethyl)-1-isopropyl-5a,5b,8,8,11a-pentamethyl-2-oxo-3,3a,4,5,5a,5b,6,7,7a,8,9,10,11,11a,11b,12,13,13a-octadecahydro-2H-cyclopenta[a]chrysen-9-yl)oxy)-2,2-dimethyl-4-oxobutanoic acid]: the EC50 came out at 0.5 nM.
As to `CC(C)C1=C2[C@H]3CC[C@@H]4[C@@]5(C)CC[C@H](OC(=O)CC(C)(C)C(=O)O)C(C)(C)[C@@H]5CC[C@@]4(C)[C@]3(C)CC[C@@]2(CCNCc2cccc(Cl)c2)CC1=O` [Example 7, 4-(((3aR,5aR,5bR,7aR,9S,11aR,11bR,13aS)-3a-(2-((3-Chlorobenzyl)amino)ethyl)-1-isopropyl-5a,5b,8,8,11a-pentamethyl-2-oxo-3,3a,4,5,5a,5b,6,7,7a,8,9,10,11,11a,11b,12,13,13a-octadecahydro-2H-cyclopenta[a]chrysen-9-yl)oxy)-2,2-dimethyl-4-oxobutanoic acid], the concentration for a half-maximal effect (EC50) came to 6.1 nM.
`CC(C)C1=C2[C@H]3CC[C@@H]4[C@@]5(C)CC[C@H](OC(=O)CC(C)(C)C(=O)O)C(C)(C)[C@@H]5CC[C@@]4(C)[C@]3(C)CC[C@@]2(CCN(C)Cc2ccc(Cl)cc2)CC1=O` [Example 12, 4-(((3aR,5aR,5bR,7aR,9S,11aR,11bR,13aS)-3a-(2-((4-Chlorobenzyl)(methyl)amino)ethyl)-1-isopropyl-5a,5b,8,8,11a-pentamethyl-2-oxo-3,3a,4,5,5a,5b,6,7,7a,8,9,10,11,11a,11b,12,13,13a-octadecahydro-2H-cyclopenta[a]chrysen-9-yl)oxy)-2,2-dimethyl-4-oxobutanoic acid]: the 50% effective concentration (EC50) worked out at 4.5 nM.

Still in this test, the particulars now being: Human immunodeficiency virus 1, NL43; MT4 cells; read-out: EC50 NL4-3 wt.
Regarding `CC(C)C1=C2[C@H]3CC[C@@H]4[C@@]5(C)CC[C@H](OC(=O)CC(C)(C)C(=O)O)C(C)(C)[C@@H]5CC[C@@]4(C)[C@]3(C)CC[C@@]2([C@@H](O)CN2CCN(C)CC2)CC1` (racemic) [Example 65, 4-(((3aS,5aR,5bR,7aR,9S,11aR,11bR,13aS)-3a-((R)-1-hydroxy-2-(4-methylpiperazin-1-yl)ethyl)-1-isopropyl-5a,5b,8,8,11a-pentamethyl-3,3a,4,5,5a,5b,6,7,7a,8,9,10,11,11a,11b,12,13,13a-octadecahydro-2H-cyclopenta[a]chrysen-9-yl)oxy)-2,2-dimethyl-4-oxobutanoic acid], the EC50 amounted to 83.8 nM.
On to `CC(=O)N(Cc1cccc(Cl)c1)C[C@H](O)[C@@]12CC[C@]3(C)[C@H](CC[C@@H]4[C@@]5(C)CC[C@H](OC(=O)CC(C)(C)C(=O)O)C(C)(C)[C@@H]5CC[C@]43C)C1=C(C(C)C)C(=O)C2` [Compound 46], for which the 50% effective concentration (EC50) was 11.1 nM.
Consider `CC(C)C1=C2[C@H]3CC[C@@H]4[C@@]5(C)CC[C@H](OC(=O)CC(C)(C)C(=O)O)C(C)(C)[C@@H]5CC[C@@]4(C)[C@]3(C)CC[C@@]2([C@H](O)CN(CCN(C)C)Cc2ccccc2Cl)CC1=O` [Compound 51], for which the EC50 turned out to be 3.5 nM.
With `CC(C)C1=C2[C@H]3CC[C@@H]4[C@@]5(C)CC[C@H](OC(=O)CC(C)(C)C(=O)O)C(C)(C)[C@@H]5CC[C@@]4(C)[C@]3(C)CC[C@@]2([C@H](CNCc2ccc(Cl)cc2)OC(=O)CC(C)(C)C(=O)O)CC1=O` [Example 1, 4-((R)-1-((3aR,5aR,5bR,7aR,9S,11aR,11bR,13aS)-9-((3-carboxy-3-methylbutanoyl)oxy)-1-isopropyl-5a,5b,8,8,11a-pentamethyl-2-oxo-3,3a,4,5,5a,5b,6,7,7a,8,9,10,11,11a,11b,12,13,13a-octadecahydro-2H-cyclopenta[a]chrysen-3a-yl)-2-((4-chlorobenzyl)amino)ethoxy)-2,2-dimethyl-4-oxobutanoic acid], the EC50 was found to be 41.1 nM.
Take `CC(C)C1=C2[C@H]3CC[C@@H]4[C@@]5(C)CC[C@H](OC(=O)CC(C)(C)C(=O)O)C(C)(C)[C@@H]5CC[C@@]4(C)[C@]3(C)CC[C@@]2([C@@H](CNCc2ccc(Cl)cc2)OC(=O)CC(C)(C)C(=O)O)CC1=O` [Example 3, 4-[(1S)-1-[(1R,2R,5R,10S,13R,14R, 17S,19R)-17-[(3-carboxy-3,3-dimethylpropanoyl)oxy]-1,2,14,18,18-pentamethyl-7-oxo-8-(propan-2-yl)pentacyclo[11.8.0.0^ {2,10}.0^{5,9}.0^{14,19}]henicos-8-en-5-yl]-2-{[(4-chlorophenyl)methyl]amino}ethoxy]-2,2-dimethyl-4-oxobutanoic acid]: the EC50 is 61.7 nM.
Turning to `CC(C)C1=C2[C@H]3CC[C@@H]4[C@@]5(C)CC[C@H](OC(=O)CC(C)(C)C(=O)O)C(C)(C)[C@@H]5CC[C@@]4(C)[C@]3(C)CC[C@@]2(CCNCc2ccc(Cl)cc2)CC1=O` [Example 5, 4-(((3aR,5aR,5bR,7aR,9S,11aR,11bR,13aS)-3a-(2-((4-Chlorobenzyl)amino)ethyl)-1-isopropyl-5a,5b,8,8,11a-pentamethyl-2-oxo-3,3a,4,5,5a,5b,6,7,7a,8,9,10,11,11a,11b,12,13,13a-octadecahydro-2H-cyclopenta[a]chrysen-9-yl)oxy)-2,2-dimethyl-4-oxobutanoic acid], the EC50 stood at 2.6 nM.
With `CC(C)C1=C2[C@H]3CC[C@@H]4[C@@]5(C)CC[C@H](OC(=O)CC(C)(C)C(=O)O)C(C)(C)[C@@H]5CC[C@@]4(C)[C@]3(C)CC[C@@]2(CCNCc2cccc(Cl)c2F)CC1=O` [Example 8, 4-(((3aR,5aR,5bR,7aR,9S,11aR,11bR,13aS)-3a-(2-((3-Chloro-2-fluorobenzyl)amino)ethyl)-1-isopropyl-5a,5b,8,8,11a-pentamethyl-2-oxo-3,3a,4,5,5a,5b,6,7,7a,8,9,10,11,11a,11b,12,13,13a-octadecahydro-2H-cyclopenta[a]chrysen-9-yl)oxy)-2,2-dimethyl-4-oxobutanoic acid], the EC50 is 5.9 nM.
On to `CC(C)C1=C2[C@H]3CC[C@@H]4[C@@]5(C)CC[C@H](OC(=O)CC(C)(C)C(=O)O)C(C)(C)[C@@H]5CC[C@@]4(C)[C@]3(C)CC[C@@]2(CCNC2(c3ccc(Cl)cc3)CC2)CC1=O` [Example 9, 4-(((3aR,5aR,5bR,7aR,9S,11aR,11bR,13aS)-3a-(2-((1-(4-chlorophenyl)cyclopropyl)amino)ethyl)-1-isopropyl-5a,5b,8,8,11a-pentamethyl-2-oxo-3,3a,4,5,5a,5b,6,7,7a,8,9,10,11,11a,11b,12,13,13a-octadecahydro-2H-cyclopenta[a]chrysen-9-yl)oxy)-2,2-dimethyl-4-oxobutanoic acid], for which the EC50 stood at 12.3 nM.
For the compound `CC(C)C1=C2[C@H]3CC[C@@H]4[C@@]5(C)CC[C@H](OC(=O)CC(C)(C)C(=O)O)C(C)(C)[C@@H]5CC[C@@]4(C)[C@]3(C)CC[C@@]2(CCN(CCN(C)C)C2(c3ccc(Cl)cc3)CC2)CC1=O` [Example 11, 4-(((3aR,5aR,5bR,7aR,9S,11aR,11bR,13aS)-3a-(2-((1-(4-Chlorophenyl)cyclopropyl)(2-(dimethylamino)ethyl)amino)ethyl)-1-isopropyl-5a,5b,8,8,11a-pentamethyl-2-oxo-3,3a,4,5,5a,5b,6,7,7a,8,9,10,11,11a,11b,12,13,13a-octadecahydro-2H-cyclopenta[a]chrysen-9-yl)oxy)-2,2-dimethyl-4-oxobutanoic acid], the EC50 came to 6.3 nM.
For `CC(=O)N(CC[C@@]12CC[C@]3(C)[C@H](CC[C@@H]4[C@@]5(C)CC[C@H](OC(=O)CC(C)(C)C(=O)O)C(C)(C)[C@@H]5CC[C@]43C)C1=C(C(C)C)C(=O)C2)Cc1ccc(Cl)cc1` [Example 13, 4-(((3aR,5aR,5bR,7aR,9S,11aR,11bR,13aS)-3a-(2-(N-(4-Chlorobenzyl)acetamido)ethyl)-1-isopropyl-5a,5b,8,8,11a-pentamethyl-2-oxo-3,3a,4,5,5a,5b,6,7,7a,8,9,10,11,11a,11b,12,13,13a-octadecahydro-2H-cyclopenta[a]chrysen-9-yl)oxy)-2,2-dimethyl-4-oxobutanoic acid], the EC50 worked out at 1.6 nM.
Regarding `CC(C)C1=C2[C@H]3CC[C@@H]4[C@@]5(C)CC[C@H](OC(=O)CC(C)(C)C(=O)O)C(C)(C)[C@@H]5CC[C@@]4(C)[C@]3(C)CC[C@@]2([C@@H](O)CNCc2ccc(Cl)cc2)CC1=O` [Example 14, 4-(((3aR,5aR,5bR,7aR,9S,11aR,11bR,13aS)-3a-((R)-2-((4-Chlorobenzyl)amino)-1-hydroxyethyl)-1-isopropyl-5a,5b,8,8,11a-pentamethyl-2-oxo-3,3a,4,5,5a,5b,6,7,7a,8,9,10,11,11a,11b,12,13,13a-octadecahydro-2H-cyclopenta[a]chrysen-9-yl)oxy)-2,2-dimethyl-4-oxobutanoic acid], the EC50 amounted to 2.1 nM.
